Test results from the supplement of paper PMC10307832.

Assays:
Test in all cases: relative viability (nuclei count vs DMSO), 5 days (fraction); higher = more cells survive
Selumetinib + Phenformin = compound: Cn1cnc2c(F)c(Nc3ccc(Br)cc3Cl)c(C(=O)NOCCO)cc21 [Selumetinib] + N=C(N)NC(=N)NCCc1ccccc1 [Phenformin] (partner 250 µM)
Procedure, shortened: (§1)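 Relative viability was taken as the ratio of nuclei in treated wells to nuclei in vehicle wells. Lung cancer cell lines in 1536-well plates received compounds by pin tool one day after seeding, either one drug alone or a fixed anchor-drug dose plus five library-drug doses (not always all listed) in √10 steps. Nuclei were counted on 4× images after 5 days of treatment, and values are medians of duplicate plates.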

Selumetinib + Pemetrexed = compound: Cn1cnc2c(F)c(Nc3ccc(Br)cc3Cl)c(C(=O)NOCCO)cc21 [Selumetinib] + Nc1nc2[nH]cc(CCc3ccc(C(=O)N[C@@H](CCC(=O)O)C(=O)O)cc3)c2c(=O)[nH]1 [Pemetrexed] (partner 0.2 µM)
Procedure, shortened: as §1

Selumetinib + Foretinib = compound: Cn1cnc2c(F)c(Nc3ccc(Br)cc3Cl)c(C(=O)NOCCO)cc21 [Selumetinib] + COc1cc2c(Oc3ccc(NC(=O)C4(C(=O)Nc5ccc(F)cc5)CC4)cc3F)ccnc2cc1OCCCN1CCOCC1 [Foretinib] (partner 0.25 µM)
Procedure, shortened: as §1

Venetoclax + Pictilisib = compound: CC1(C)CCC(CN2CCN(c3ccc(C(=O)NS(=O)(=O)c4ccc(NCC5CCOCC5)c([N+](=O)[O-])c4)c(Oc4cnc5[nH]ccc5c4)c3)CC2)=C(c2ccc(Cl)cc2)C1 [Venetoclax] + CS(=O)(=O)N1CCN(Cc2cc3nc(-c4cccc5[nH]ncc45)nc(N4CCOCC4)c3s2)CC1 [Pictilisib] (partner 1 µM)
Procedure, shortened: as §1

Work on UMC-11 yielded a relative viability (Selumetinib + Phenformin; first compound 0.02 µM) of 0.301, a relative viability (Selumetinib + Phenformin; first compound 0.06325 µM) of 0.284 and a relative viability (Selumetinib + Phenformin; first compound 0.2 µM) of 0.307. It also gave a relative viability (Selumetinib + Phenformin; first compound 0.6325 µM) of 0.323, a relative viability (Selumetinib + Pemetrexed; first compound 0.02 µM) of 0.771 and a relative viability (Selumetinib + Pemetrexed; first compound 0.06325 µM) of 0.788. The relative viability (Selumetinib + Pemetrexed; first compound 0.2 µM) was 0.827, the relative viability (Selumetinib + Pemetrexed; first compound 0.6325 µM) was 0.903 and the relative viability (Selumetinib + Foretinib; first compound 0.02 µM) was 1.05. The relative viability (Selumetinib + Foretinib; first compound 0.06325 µM) was 1.11, the relative viability (Selumetinib + Foretinib; first compound 0.2 µM) was 1.05 and the relative viability (Selumetinib + Foretinib; first compound 0.6325 µM) was 1.04. The relative viability (Venetoclax + Pictilisib; first compound 0.01 µM) was 0.817, the relative viability (Venetoclax + Pictilisib; first compound 0.03162 µM) was 0.985 and the relative viability (Venetoclax + Pictilisib; first compound 0.1 µM) was 0.747. The relative viability (Venetoclax + Pictilisib; first compound 0.3162 µM) was 0.741 and the relative viability (Venetoclax + Pictilisib; first compound 1 µM) was 0.72.
